From ChEMBL document CHEMBL5518224, “Rational Design of PARP1/c-Met Dual Inhibitors for Overcoming PARP1 Inhibitor Resistance Induced by c-Met Overexpression” (J Med Chem, 2024)
Calls of active or inactive are those of the source. The calls are words filed in the database; no cut-off is given here.

What was measured:
MDA-MB-231 [1] = assay: Induction of apoptosis in human MDA-MB-231 cells assessed as live cells at 0.5 uM incubated for 4 days in presence of olaparib at 1 uM by Annexin V-FITC/PI staining based flow cytometry analysis (reference value: 94.6%); assay type: functional; settings: time 4 day
MDA-MB-231 [2] = assay: Antiproliferative activity against human MDA-MB-231 cells harboring wild type BRCA and c-Met amplification assessed as inhibition of cell growth incubated for 7 days by MTT assay; assay type: functional, cell-based; settings: MDA-MB-231, 168 h
MDA-MB-231 [3] = assay: Induction of apoptosis in human MDA-MB-231 cells assessed as late apoptotic cells at 0.5 uM incubated for 4 days in presence of olaparib at 1 uM by Annexin V-FITC/PI staining based flow cytometry analysis (reference value: 0.81%); assay type: functional; settings: time 4 day
MDA-MB-231 [4] = assay: Antitumor activity against human MDA-MB-231 cells xenografted in female Balb/c nude mouse assessed as reduction in tumor weight at 25 mg/kg/day, po qd administered for 28 days in presence of olaparib 50 mg/kg, ip qd; assay type: functional, organism-based; settings: time 28.0 day
MDA-MB-231 [5] = assay: Induction of apoptosis in human MDA-MB-231 cells assessed as early apoptotic cells at 0.5 uM incubated for 4 days in presence of olaparib at 1 uM by Annexin V-FITC/PI staining based flow cytometry analysis (reference value: 3.88%); assay type: functional; settings: time 4 day
MDA-MB-231 [6] = assay: Induction of apoptosis in human MDA-MB-231 cells assessed as live cells at 0.5 uM incubated for 4 days by Annexin V-FITC/PI staining based flow cytometry analysis (reference value: 94.6%); assay type: functional; settings: time 4 day
[7] = tested on: Olaparib-resistant HCT116; assay: Antitumor activity against human Olaparib-resistant HCT116 cells xenografted in female Balb/c nude mouse assessed as tumor growth inhibition at 25 mg/kg/day, po qd administered for 21 days relative to control; assay type: functional; settings: Olaparib-resistant HCT116, 504 h, time 21 day, read-out: TGI
[8] = tested on: Olaparib-resistant HCT116; assay: Antiproliferative activity against human Olaparib-resistant HCT116 cells harboring BRCA2 mutant assessed as inhibition of cell growth incubated for 7 days by MTT assay; assay type: functional, cell-based; settings: Olaparib-resistant HCT116, 168 h
[9] = tested on: Olaparib-resistant HCT116; assay: Antitumor activity against human Olaparib-resistant HCT116 cells xenografted in female Balb/c nude mouse assessed as reduction in tumor weight at 25 mg/kg/day, po qd administered for 21 days; assay type: functional, organism-based; settings: time 21.0 day
MDA-MB-468 = assay: Antiproliferative activity against human MDA-MB-468 cells harboring wild type BRCA1/2, HR-proficient and non-c-Met amplification assessed as inhibition of cell growth incubated for 7 days by MTT assay; assay type: functional, cell-based; settings: MDA-MB-468, 168 h
[10] = tested on: Olaparib-resistant HCT116; assay: Antitumor activity against human Olaparib-resistant HCT116 cells xenografted in female Balb/c nude mouse assessed as tumor growth inhibition at 25 mg/kg/day, po qd administered for 21 days in presence of olaparib at 50 mg/kg/day, ip qd relative to control; assay type: functional; settings: Olaparib-resistant HCT116, 504 h, time 21 day, read-out: TGI
[11] = Antiproliferative activity against human Olaparib-resistant HCC1937 cells harboring BRCA1 mutant and PARP1 overexpression assessed as inhibition of cell growth incubated for 7 days by MTT assay; assay type: functional, cell-based; settings: Olaparib-resistant HCC1937, 168 h
MDA-MB-231 [12] = assay: Antitumor activity against human MDA-MB-231 cells xenografted in female Balb/c nude mouse assessed as tumor growth inhibition at 25 mg/kg/day, po qd administered for 28 days relative to control; assay type: functional; settings: MDA-MB-231, 672 h, time 28 day, read-out: TGI
MDA-MB-231 [13] = assay: Induction of apoptosis in human MDA-MB-231 cells assessed as early apoptotic cells at 0.5 uM incubated for 4 days by Annexin V-FITC/PI staining based flow cytometry analysis (reference value: 3.88%); assay type: functional; settings: time 4 day
MDA-MB-231 [14] = assay: Induction of apoptosis in human MDA-MB-231 cells assessed as dead cells at 0.5 uM incubated for 4 days by Annexin V-FITC/PI staining based flow cytometry analysis (reference value: 0.72%); assay type: functional; settings: time 4 day
MDA-MB-231 [15] = assay: Antitumor activity against human MDA-MB-231 cells xenografted in female Balb/c nude mouse assessed as tumor growth inhibition at 25 mg/kg/day, po qd administered for 28 days in presence of olaparib 50 mg/kg, ip qd relative to control; assay type: functional; settings: MDA-MB-231, 672 h, time 28 day, read-out: TGI
MDA-MB-231 [16] = assay: Induction of apoptosis in human MDA-MB-231 cells assessed as late apoptotic cells at 0.5 uM incubated for 4 days by Annexin V-FITC/PI staining based flow cytometry analysis (reference value: 0.81%); assay type: functional; settings: time 4 day
MDA-MB-231 [17] = assay: Antitumor activity against human MDA-MB-231 cells xenografted in female Balb/c nude mouse assessed as reduction in tumor weight at 25 mg/kg/day, po qd administered for 28 days; assay type: functional, organism-based; settings: time 28.0 day
MDA-MB-231 [18] = assay: Induction of apoptosis in human MDA-MB-231 cells assessed as dead cells at 0.5 uM incubated for 4 days in presence of olaparib at 1 uM by Annexin V-FITC/PI staining based flow cytometry analysis (reference value: 0.72%); assay type: functional; settings: time 4 day
[19] = tested on: Olaparib-resistant HCT116; assay: Antitumor activity against human Olaparib-resistant HCT116 cells xenografted in female Balb/c nude mouse assessed as reduction in tumor weight at 50 mg/kg/day, ip qd administered for 21 days in presence of crizotinib at 25 mg/kg/day, po qd; assay type: functional, organism-based; settings: time 21.0 day
MDA-MB-231 [20] = assay: Induction of apoptosis in human MDA-MB-231 cells assessed as early apoptotic cells at 1 uM incubated for 4 days in presence of crizotinib at 0.5 uM by Annexin V-FITC/PI staining based flow cytometry analysis (reference value: 3.88%); assay type: functional; settings: time 4 day
MDA-MB-231 [21] = assay: Induction of apoptosis in human MDA-MB-231 cells assessed as live cells at 1 uM incubated for 4 days in presence of crizotinib at 0.5 uM by Annexin V-FITC/PI staining based flow cytometry analysis (reference value: 94.6%); assay type: functional; settings: time 4 day
MDA-MB-231 [22] = assay: Induction of apoptosis in human MDA-MB-231 cells assessed as late apoptotic cells at 1 uM incubated for 4 days in presence of crizotinib at 0.5 uM by Annexin V-FITC/PI staining based flow cytometry analysis (reference value: 0.81%); assay type: functional; settings: time 4 day
MDA-MB-231 [23] = assay: Antitumor activity against human MDA-MB-231 cells xenografted in female Balb/c nude mouse assessed as reduction in tumor weight at 50 mg/kg/day, ip qd administered for 28 days; assay type: functional, organism-based; settings: time 28.0 day
[24] = tested on: Olaparib-resistant HCT116; assay: Antitumor activity against human Olaparib-resistant HCT116 cells xenografted in female Balb/c nude mouse assessed as tumor growth inhibition at 50 mg/kg/day, ip qd administered for 21 days in presence of crizotinib at 25 mg/kg/day, po qd relative to control; assay type: functional; settings: time 21 day
MDA-MB-231 [25] = assay: Induction of apoptosis in human MDA-MB-231 cells assessed as dead cells at 1 uM incubated for 4 days in presence of crizotinib at 0.5 uM by Annexin V-FITC/PI staining based flow cytometry analysis (reference value: 0.72%); assay type: functional; settings: time 4 day
MDA-MB-231 [26] = assay: Antitumor activity against human MDA-MB-231 cells xenografted in female Balb/c nude mouse assessed as tumor growth inhibition at 50 mg/kg/day, ip qd administered for 28 days relative to control; assay type: functional; settings: time 28 day
MDA-MB-231 [27] = assay: Antitumor activity against human MDA-MB-231 cells xenografted in female Balb/c nude mouse assessed as reduction in tumor weight at 50 mg/kg/day, ip qd administered for 28 days in presence of crizotinib at 25 mg/kg, po qd; assay type: functional, organism-based; settings: time 28.0 day
MDA-MB-231 [28] = assay: Induction of apoptosis in human MDA-MB-231 cells assessed as live cells at 1 uM incubated for 4 days by Annexin V-FITC/PI staining based flow cytometry analysis (reference value: 94.6%); assay type: functional; settings: time 4 day
[29] = tested on: Olaparib-resistant HCT116; assay: Antitumor activity against human Olaparib-resistant HCT116 cells xenografted in female Balb/c nude mouse assessed as reduction in tumor weight at 25 mg/kg/day, po qd administered for 21 days in presence of olaparib at 50 mg/kg/day, ip qd; assay type: functional, organism-based; settings: time 21.0 day
MDA-MB-231 [30] = assay: Induction of apoptosis in human MDA-MB-231 cells assessed as early apoptotic cells at 1 uM incubated for 4 days by Annexin V-FITC/PI staining based flow cytometry analysis (reference value: 3.88%); assay type: functional; settings: time 4 day
[31] = tested on: Olaparib-resistant HCT116; assay: Antitumor activity against human Olaparib-resistant HCT116 cells xenografted in female Balb/c nude mouse assessed as reduction in tumor weight at 50 mg/kg/day, ip qd administered for 21 days; assay type: functional, organism-based; settings: time 21.0 day
MDA-MB-231 [32] = assay: Induction of apoptosis in human MDA-MB-231 cells assessed as late apoptotic cells at 1 uM incubated for 4 days by Annexin V-FITC/PI staining based flow cytometry analysis (reference value: 0.81%); assay type: functional; settings: time 4 day
MDA-MB-231 [33] = assay: Induction of apoptosis in human MDA-MB-231 cells assessed as dead cells at 1 uM incubated for 4 days by Annexin V-FITC/PI staining based flow cytometry analysis (reference value: 0.72%); assay type: functional; settings: time 4 day
[34] = tested on: Olaparib-resistant HCT116; assay: Antitumor activity against human Olaparib-resistant HCT116 cells xenografted in female Balb/c nude mouse assessed as tumor growth inhibition at 50 mg/kg/day, ip qd administered for 21 days relative to control; assay type: functional; settings: time 21 day

With `C[C@@H](Oc1cc(-c2cnn(C3CCNCC3)c2)cnc1N)c1c(Cl)ccc(F)c1Cl` [CRIZOTINIB] the Activity (MDA-MB-231 [1]) was 76.9%, the IC50 (MDA-MB-231 [2]) was 8.37 µM and the Activity (MDA-MB-231 [3]) was 6.57%. The Activity (MDA-MB-231 [4]) was “Active”, the Activity (MDA-MB-231 [5]) was 7.12% and the Activity (MDA-MB-231 [6]) was 90.9%. For the same molecule, the inhibition in vivo at 25 mg/kg/day [7] was 21%, the IC50 [8] was 3.15 µM and the Activity [9] was “Active”. It also gave an IC50 (MDA-MB-468) of 4.54 µM, an inhibition in vivo at 25 mg/kg/day [10] of 48% and an IC50 [11] of 5.23 µM. The inhibition in vivo at 25 mg/kg/day (MDA-MB-231 [12]) was 6%, the Activity (MDA-MB-231 [13]) was 4.75% and the Activity (MDA-MB-231 [14]) was 2.23%. The inhibition in vivo at 25 mg/kg/day (MDA-MB-231 [15]) was 69%, the Activity (MDA-MB-231 [16]) was 2.08% and the Activity (MDA-MB-231 [17]) was “Active”. For the same molecule, the Activity (MDA-MB-231 [18]) was 9.45%.

With `O=C(c1cc(Cc2n[nH]c(=O)c3ccccc23)ccc1F)N1CCN(C(=O)C2CC2)CC1` [OLAPARIB] the IC50 (MDA-MB-231 [2]) was 30.7 µM, the Activity [19] was “Active” and the Activity (MDA-MB-231 [20]) was 7.12%. For the same molecule, the Activity (MDA-MB-231 [21]) was 76.9%, the Activity (MDA-MB-231 [22]) was 6.57% and the Activity (MDA-MB-231 [23]) was “Active”. The TGI [24] was 48%, the Activity (MDA-MB-231 [25]) was 9.45% and the IC50 [8] was 50.8 µM. The TGI (MDA-MB-231 [26]) was 27%, the Activity (MDA-MB-231 [27]) was “Active” and the IC50 (MDA-MB-468) was 9.23 µM. For the same molecule, the Activity (MDA-MB-231 [28]) was 88.9%, the Activity [29] was “Active” and the IC50 [11] was 18.9 µM. The Activity (MDA-MB-231 [30]) was 3.77%, the Activity [31] was “Active” and the Activity (MDA-MB-231 [32]) was 2.48%. For the same molecule, the Activity (MDA-MB-231 [33]) was 4.86% and the TGI [34] was 26%.
